Measurements taken from ChEMBL document CHEMBL4354832, “Discovery of a Covalent Inhibitor of KRASG12C (AMG 510) for the Treatment of Solid Tumors” (J Med Chem, 2020).
Values after ≈ are worked out from the molar mass of the structure shown. Blank lines part the entries; values can stand above or below the molecule they belong to. Active and inactive are the calls of the source. The rule behind the calls is not given here.

Tests used:
[1] = Oral bioavailability in BALB/c mouse at 10 mg/kg; format: ADME, organism-based; conditions: in vivo
[2] = Ratio of unbound plasma concentration in BALB/c mouse at 10 mg/kg to IC50 for inhibition of KRAS in human MIAPaca2 cells assessed as decrease in EGF-stimulated ERK1/2 phosphorylation preincubated for 2 hrs followed by EGF stimulation; format: organism-based; conditions: in vivo
[3] = Half life in BALB/c mouse at 1 mg/kg, iv or 10 mg/kg, po; format: ADME, organism-based; conditions: in vivo
GTPase KRas [4] = target: GTPase KRas (Homo sapiens, UniProt P01116); test: Inhibition of KRAS in human MIAPaca2 cells assessed as decrease in EGF-stimulated ERK1/2 phosphorylation preincubated for 2 hrs followed by EGF stimulation; format: cell-based
GTPase KRas [5] = target: GTPase KRas (Homo sapiens, UniProt P01116, C118A/G12C); test: Inhibition of GDP bound recombinant human His-tagged KRAS G12C/C118A mutant (1 to 169 residues) assessed as reduction in SOS1-mediated GDP/GTP nucleotide exchange by measuring the disruption between GDP-bound recombinant His-tagged KRAS G12C/C118A (1 to 169 residues) and Ras binding domain of GST-tagged c-RAF (1 to 149 residues) preincubated for 5 mins followed by SOS1 and GTP addition and further incubated for 30 mins by AlphaLISA assay
[6] = Clearance in BALB/c mouse at 1 mg/kg, iv or 10 mg/kg, po; format: ADME, organism-based; conditions: in vivo
[7] = Protein binding in BALB/c mouse plasma assessed as unbound fraction by ultracentrifugation; format: ADME, cell-free
[8] = Volume of distribution at steady state in BALB/c mouse at 1 mg/kg, iv or 10 mg/kg, po; format: ADME, organism-based; conditions: in vivo, read-out: Vdss
[9] = Solubility of compound in FaSSIF incubated for 48 to 72 hrs under shaking conditions by LCMS analysis; format: physicochemical
[10] = Intrinsic clearance in human cryopreserved hepatocytes assessed per 10^6 cells at 0.5 uM measured upto 60 mins by LCMS analysis; format: ADME, cell-based, Hepatocyte; conditions: read-out: CLH
A549 = test: Antiproliferative activity against human A549 cells harboring KRAS G12S point mutant assessed as cell growth inhibition after 72 hrs by Celltiter-Glo luminescent cell viability assay; format: functional, cell-based; conditions: A549, 72 h
MIA PaCa-2 [11] = test: Antiproliferative activity against human MIAPaCa2 cells harboring KRAS G12C point mutant assessed as cell growth inhibition after 72 hrs by Celltiter-Glo luminescent cell viability assay; format: functional, cell-based; conditions: MIA PaCa-2, 72 h
[12] = Intrinsic clearance in mouse cryopreserved hepatocytes assessed per 10^6 cells at 0.5 uM measured upto 60 mins by LCMS analysis; format: ADME, cell-based, Hepatocyte; conditions: read-out: CLH
[13] = Solubility of compound in PBS buffer at pH 7.4 incubated for 48 to 72 hrs under shaking conditions by LCMS analysis; format: physicochemical
[14] = Permeability of compound across apical to basolateral membrane in MDCK2 cells at 10 to 50 uM incubated for 2 hrs under shaking condition by LC-MS/MS analysis; format: ADME, cell-based, Canis lupus familiaris, MDCK-II; conditions: dog, MDCK; read-out: permeability
[15] = Solubility of compound in 0.01N HCl at pH 2 incubated for 48 to 72 hrs under shaking conditions by LCMS analysis; format: physicochemical
[16] = Half life of compound at 25 degree C; format: physicochemical
[17] = Time taken to achieve Cmax in tumor of athymic nude mouse xenografted with human MIAPaCa2 cells at > 10 mg/kg, po administered as single dose; format: ADME, organism-based, Neoplasm; conditions: read-out: tCmax (converted)
[18] = Protein binding in plasma of BALB/c mouse assessed as unbound fraction at […] by ultracentrifugation; format: ADME
[19] = Time taken to achieve Cmax in plasma of athymic nude mouse xenografted with human MIAPaCa2 cells at > 10 mg/kg, po administered as single dose; format: ADME, organism-based; conditions: read-out: tCmax (converted)
MIA PaCa-2 [20] = test: Antitumor activity against human MIAPaCa2 cells harboring KRAS G12C point mutant xenografted in athymic nude mouse assessed as tumor growth inhibition at 10 mg/kg, po qd measured after 26 days relative to control; format: functional
[21] = Clearance in Sprague-Dawley rat at 1 mg/kg, iv or 10 mg/kg, po; format: ADME, organism-based; conditions: in vivo
[22] = Half life in Beagle dog at 1 mg/kg, iv or 10 mg/kg, po; format: ADME, organism-based, Canis lupus familiaris; conditions: in vivo
[23] = Tmin in plasma of athymic nude mouse xenografted with human MIAPaCa2 cells at > 10 mg/kg, po administered as single dose; format: ADME, organism-based; conditions: in vivo
[24] = Protein binding in plasma of human assessed as unbound fraction at […] by ultracentrifugation; format: ADME, cell-free
[25] = Protein binding in plasma of Sprague-Dawley rat assessed as unbound fraction at […] by ultracentrifugation; format: ADME, cell-free
MIA PaCa-2 [26] = test: Antitumor activity against human MIAPaCa2 cells harboring KRAS G12C point mutant xenografted in athymic nude mouse assessed as tumor regression at 30 mg/kg, po qd measured after 26 days relative to control; format: functional
[27] = Clearance in Beagle dog at 1 mg/kg, iv or 10 mg/kg, po; format: ADME, organism-based, Canis lupus familiaris; conditions: in vivo
[28] = Protein binding in plasma of Beagle dog assessed as unbound fraction at […] by ultracentrifugation; format: ADME, cell-free, Canis lupus familiaris
[29] = Unbound plasma concentration in athymic nude mouse xenografted with human MIAPaCa2 cells at 10 mg/kg, po qd after 8 hrs post-last dose; format: ADME, organism-based; conditions: in vivo
MIA PaCa-2 [30] = test: Antitumor activity against human MIAPaCa2 cells harboring KRAS G12C point mutant xenografted in athymic nude mouse assessed as tumor regression at 100 mg/kg, po qd measured after 26 days relative to control; format: functional
MIA PaCa-2 [31] = test: Antitumor activity against human MIAPaCa2 cells harboring KRAS G12C point mutant xenografted in athymic nude mouse assessed as tumor regression at >= 30 mg/kg, po qd measured after 26 days; format: functional, organism-based
[32] = Half life of compound in aqueous phosphate buffer at pH 7.4 and at 37 degree C in presence of 5 mM GSH; format: physicochemical; conditions: aqueous phosphate buffer with 5 mM GSH
[33] = Volume of distribution at steady state in Beagle dog at 1 mg/kg, iv or 10 mg/kg, po; format: ADME, organism-based, Canis lupus familiaris; conditions: in vivo, read-out: Vdss
[34] = Oral bioavailability in Sprague-Dawley rat at 10 mg/kg; format: ADME, organism-based; conditions: in vivo
[35] = Volume of distribution at steady state in Sprague-Dawley rat at 1 mg/kg, iv or 10 mg/kg, po; format: ADME, organism-based; conditions: in vivo, read-out: Vdss
[36] = Oral bioavailability in Beagle dog at 10 mg/kg; format: ADME, organism-based, Canis lupus familiaris; conditions: in vivo
[37] = Half life in Sprague-Dawley rat at 1 mg/kg, iv or 10 mg/kg, po; format: ADME, organism-based; conditions: in vivo
Mus musculus = test: Decrease in ERK1/ERK2 phosphorylation in human MIAPaCa2 cells xenografted in athymic nude mouse at > 10 mg/kg, po administered as single dose measured after 60 to 120 mins post-treatment; format: functional, organism-based

Structure (SMILES): C=CC(=O)N1CCN(c2nc(=O)n(-c3c(CC)cccc3CC)c3nc(-c4c(O)cccc4F)c(Cl)cc23)[C@@H](C)C1
- bioavailability [1]: 8%
- Ratio [2]: 0.8
- half-life [3]: 30 min
- IC50 (GTPase KRas [4]): 0.036 µM
- IC50 (GTPase KRas [5]): 0.068 µM
- clearance [6]: 3.3 L/h/kg
- fraction unbound [7]: 0.03

- Vd [8]: 1.1 L/kg
- bioavailability [1]: 15%
- solubility thermodynamic [9]: 477 µM (≈ 267 µg/mL)
- hepatocyte CLint at 0.5 µM [10]: 9 µL/min/1e6 cells
- IC50 (A549): 49.1 µM
- IC50 (MIA PaCa-2 [11]): 0.016 µM
- half-life [3]: 18 min
- hepatocyte CLint at 0.5 µM [12]: 100 µL/min/1e6 cells
- solubility thermodynamic [13]: 426 µM (≈ 239 µg/mL)
- Papp A→B at 2 h, up to 50 µM [14]: 10 nm/s
- solubility thermodynamic [15]: 484 µM (≈ 271 µg/mL)
- clearance [6]: 3.7 L/h/kg
Structure (SMILES): C=CC(=O)N1CCN(c2nc(=O)n(-c3c(C(C)C)ccnc3C)c3nc(-c4c(O)cccc4F)c(F)cc23)[C@@H](C)C1

Structure (SMILES): C=CC(=O)N1CCN(c2nc(=O)n(-c3ccccc3C(C)C)c3nc(-c4c(O)cccc4F)c(Cl)cc23)[C@@H](C)C1 (stereo in doubt; (R)-18)
- Vd [8]: 0.4 L/kg
- bioavailability [1]: 33%
- solubility thermodynamic [9]: 184 µM (≈ 103 µg/mL)
- t1/2 [16]: 300 min
- hepatocyte CLint at 0.5 µM [10]: 38 µL/min/1e6 cells
- IC50 (A549): 14.2 µM
- IC50 (MIA PaCa-2 [11]): 0.005 µM
- half-life [3]: 78 min
- hepatocyte CLint at 0.5 µM [12]: 119 µL/min/1e6 cells
- solubility thermodynamic [13]: 9 µM (≈ 5.06 µg/mL)
- IC50 (GTPase KRas [4]): 0.044 µM
- Papp A→B at 2 h, up to 50 µM [14]: 90 nm/s
- solubility thermodynamic [15]: 7 µM (≈ 3.93 µg/mL)
- IC50 (GTPase KRas [5]): 0.051 µM
- clearance [6]: 0.4 L/h/kg

Structure (SMILES): C=CC(=O)N1CCN(c2nc(=O)n(-c3c(C4CC4)ncnc3C3CC3)c3nc(-c4c(O)cccc4F)c(Cl)cc23)[C@@H](C)C1
- bioavailability [1]: 7%
- Ratio [2]: 0.6
- half-life [3]: 30 min
- IC50 (GTPase KRas [4]): 0.036 µM
- clearance [6]: 3.3 L/h/kg
- fraction unbound [7]: 0.08

- Vd [8]: 0.7 L/kg
- bioavailability [1]: 22 to 40%
- Tmax [17]: 30 min
- fraction unbound at […] [18]: 0.06
- Tmax [19]: 30 min
- solubility thermodynamic [9]: 492 µM (≈ 276 µg/mL)
- clearance [21]: 3.4 L/h/kg
- hepatocyte CLint at 0.5 µM [10]: 9 µL/min/1e6 cells
- IC50 (A549): 36.5 µM
- half-life [22]: 24 min
- IC50 (MIA PaCa-2 [11]): 0.005 µM
- Tmin [23]: 120 min
- fraction unbound at […] [24]: 0.09
- half-life [3]: 30 min
- fraction unbound at […] [25]: 0.05
- hepatocyte CLint at 0.5 µM [12]: 36 µL/min/1e6 cells
- clearance [27]: 2.2 L/h/kg
- fraction unbound at […] [28]: 0.17
- solubility thermodynamic [13]: 423 µM (≈ 237 µg/mL)
- Cp(f) [29]: < 1 nM
- half-life [32]: 200 min
- Vd [33]: 0.73 L/kg
- bioavailability [34]: 2.8%
- Papp A→B at 2 h, up to 50 µM [14]: 60 nm/s
- Vd [35]: 2 L/kg
- bioavailability [36]: 0.34%
- half-life [37]: 30 min
- solubility thermodynamic [15]: 499 µM (≈ 280 µg/mL)
- clearance [6]: 1.6 L/h/kg
Structure (SMILES): C=CC(=O)N1CCN(c2nc(=O)n(-c3c(C)ccnc3C(C)C)c3nc(-c4c(O)cccc4F)c(F)cc23)[C@@H](C)C1 [SOTORASIB]
- TGI (MIA PaCa-2 [20]): 86%
- inhibition (INH) (MIA PaCa-2 [26]): 34%
- inhibition (INH) (MIA PaCa-2 [30]): 62%
- inhibition (MIA PaCa-2 [31]): Active
- inhibition (Mus musculus): Active

- Vd [8]: 0.8 L/kg
- bioavailability [1]: 10%
- solubility thermodynamic [9]: 299 µM (≈ 163 µg/mL)
- hepatocyte CLint at 0.5 µM [10]: 82 µL/min/1e6 cells
- IC50 (A549): 12.2 µM
- IC50 (MIA PaCa-2 [11]): 0.013 µM
- half-life [3]: 30 min
- hepatocyte CLint at 0.5 µM [12]: 288 µL/min/1e6 cells
- solubility thermodynamic [13]: 88 µM (≈ 47.9 µg/mL)
- Papp A→B at 2 h, up to 50 µM [14]: 180 nm/s
- solubility thermodynamic [15]: 57 µM (≈ 31 µg/mL)
- clearance [6]: 1.7 L/h/kg
Structure (SMILES): C=CC(=O)N1CCN(c2nc(=O)n(-c3ccccc3C(C)C)c3nc(-c4ccccc4O)c(Cl)cc23)[C@@H](C)C1
